Experimental data taken from patent US8613914B2, “Peptidomimetic sulfamide compounds and antiviral uses thereof” (Novartis AG, priority 2009, dated 2013).

Each molecule was assayed against HCV NS3-4A serine protease (full-length NS3-4A protein) (Hepatitis C virus genotype 1a (isolate 1) (HCV), UniProt P26664) (assay: HCV NS3-4A protease assay). Conditions: strain HCV-1, fluorogenic peptide substrate, read-out: Protease assay Ex. 12 IC50.
Assay type: biochemical, HCV genotype 1a
Protocol: The inhibitory activity of certain compounds of Table A against HCV NS3-4A serine protease is determined in a homogenous assay using the full-length NS3-4A protein (genotype 1a, strain HCV-1) and a commercially available internally-quenched fluorogenic peptide substrate as described by Taliani, M., et al. 1996 Anal. Biochem. 240:60-67, which is incorporated by reference in its entirety.

Chain of HCV NS3-4A serine protease (full-length NS3-4A protein) (P26664 1027-1657): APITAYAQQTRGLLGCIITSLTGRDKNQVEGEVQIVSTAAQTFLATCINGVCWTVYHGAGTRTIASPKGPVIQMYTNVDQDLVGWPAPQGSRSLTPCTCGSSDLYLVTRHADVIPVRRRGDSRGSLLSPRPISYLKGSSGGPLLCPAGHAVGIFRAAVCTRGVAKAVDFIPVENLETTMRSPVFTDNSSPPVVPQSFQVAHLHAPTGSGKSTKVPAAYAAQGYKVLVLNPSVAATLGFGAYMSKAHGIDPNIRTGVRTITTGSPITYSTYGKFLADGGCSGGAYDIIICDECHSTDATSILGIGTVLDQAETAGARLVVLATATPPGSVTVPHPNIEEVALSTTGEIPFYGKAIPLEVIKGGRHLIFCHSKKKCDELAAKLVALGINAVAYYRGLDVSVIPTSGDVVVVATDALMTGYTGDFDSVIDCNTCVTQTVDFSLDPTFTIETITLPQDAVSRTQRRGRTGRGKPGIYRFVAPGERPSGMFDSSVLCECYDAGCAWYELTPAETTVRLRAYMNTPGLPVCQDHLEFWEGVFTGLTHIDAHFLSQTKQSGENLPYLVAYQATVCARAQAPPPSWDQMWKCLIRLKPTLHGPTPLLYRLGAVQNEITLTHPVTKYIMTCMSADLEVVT
Chain of HCV NS3-4A serine protease (full-length NS3-4A protein) (P26664 1658-1711 partner): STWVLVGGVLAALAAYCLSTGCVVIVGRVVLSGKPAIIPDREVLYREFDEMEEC

First: C=C[C@@H]1C[C@]1(NC(=O)[C@@H]1C[C@@]2(CN1C(=O)[C@@H](NC(=O)[C@@H](NC(=O)[C@@H]1CCCCN1C(C)C)C1(C)CCCCC1)C(C)(C)C)C(C)(C)C21CCC1)C(=O)NS(=O)(=O)N(CC)CC [Compound 133, (5R,8S)-N-[(1R,2S)-1-{[(diethylamino)sulfonyl]carbamoyl}-2-vinylcyclopropyl]-7-[(2S)-2-{[(2S)-2-({[(2S)-1-isopropylpiperidin-2-yl]carbonyl}amino)-2-(1-methylcyclohexyl)acetyl]amino}-3,3-dimethylbutanoyl]-10,10-dimethyl-7-azadispiro[3.0.4.1]decane-8-carboxamide]
Second: C=C[C@@H]1C[C@]1(NC(=O)[C@@H]1C[C@@]2(CN1C(=O)[C@@H](NC(=O)[C@@H](NC(=O)[C@@H]1CCCN1CC)C1(C)CCCCC1)C(C)(C)C)C(C)(C)C21CCC1)C(=O)NS(=O)(=O)N(CC)CC [Compound 134, (5R,8S)-N-[(1R,2S)-1-{[(diethylamino)sulfonyl]carbamoyl}-2-vinylcyclopropyl]-7-[(2S)-2-{[(2S)-2-({[(2S)-1-ethylpyrrolidin-2-yl]carbonyl}amino)-2-(1-methylcyclohexyl)acetyl]amino}-3,3-dimethylbutanoyl]-10,10-dimethyl-7-azadispiro[3.0.4.1]decane-8-carboxamide]
The IC50 of the first is 1.7-fold lower: 3 nM for the first, 5 nM for the second.

First: C=C[C@@H]1C[C@]1(NC(=O)[C@@H]1C[C@@]2(CN1C(=O)[C@@H](NC(=O)[C@@H](NC(=O)[C@@H]1CCCCN1C(C)C)C1(C)CCCCC1)C(C)(C)C)C(C)(C)C21CCC1)C(=O)NS(=O)(=O)N1CCCC1 [Compound 135, (5R,8S)-7-[(2S)-2-{[(2S)-2-({[(2S)-1-isopropylpiperidin-2-yl]carbonyl}amino)-2-(1-methylcyclohexyl)acetyl]amino}-3,3-dimethylbutanoyl]-10,10-dimethyl-N-{(1R,2S)-1-[(pyrrolidin-1-ylsulfonyl)carbamoyl]-2-vinylcyclopropyl}-7-azadispiro[3.0.4.1]decane-8-carboxamide]
Second: C=C[C@@H]1C[C@]1(NC(=O)[C@@H]1C[C@@]2(CN1C(=O)[C@@H](NC(=O)[C@@H](NC(=O)[C@@H]1CCCN1CC)C1(C)CCCCC1)C(C)(C)C)C(C)(C)C21CCC1)C(=O)NS(=O)(=O)N1CCCC1 [Compound 136, (5R,8S)-7-[(2S)-2-{[(2S)-2-({[(2S)-1-ethylpyrrolidin-2-yl]carbonyl}amino)-2-(1-methylcyclohexyl)acetyl]amino}-3,3-dimethylbutanoyl]-10,10-dimethyl-N-{(1R,2S)-1-[(pyrrolidin-1-ylsulfonyl)carbamoyl]-2-vinylcyclopropyl}-7-azadispiro[3.0.4.1]decane-8-carboxamide]
The IC50 of the first is 1.6-fold lower: 4.5 nM for the first, 7 nM for the second. The first is the more potent here.

Compared with `C=C[C@@H]1C[C@]1(NC(=O)[C@@H]1C[C@@]2(CN1C(=O)[C@@H](NC(=O)[C@@H](NC(=O)[C@H]1CCCCN1C(C)C)C1CCCCC1)C(C)(C)C)C(C)(C)C21CCC1)C(=O)NS(=O)(=O)N(CC)CCC` [Compound 137, (5R,8S)-7-[(2S)-2-{[(2S)-2-cyclohexyl-2-({[(2R)-1-isopropylpiperidin-2-yl]carbonyl}amino)acetyl]amino}-3,3-dimethylbutanoyl]-N-[(1R,2S)-1-({[ethyl(propyl)amino]sulfonyl}carbamoyl)-2-vinylcyclopropyl]-10,10-dimethyl-7-azadispiro[3.0.4.1]decane-8-carboxamide], `CCCN(C)S(=O)(=O)NC(=O)[C@@]1(NC(=O)[C@@H]2C[C@@]3(CN2C(=O)[C@@H](NC(=O)[C@@H](NC(=O)[C@@H]2CCCCN2C(C)C)C2CCCCC2)C(C)(C)C)C(C)(C)C32CCC2)C[C@H]1CC` [Compound 142, (5R,8S)-7-[(2S)-2-{[(2S)-2-cyclohexyl-2-({[(2S)-1-isopropylpiperidin-2-yl]carbonyl}amino)acetyl]amino}-3,3-dimethylbutanoyl]-N-[(1R,2R)-2-ethyl-1-({[methyl(propyl)amino]sulfonyl}carbamoyl)cyclopropyl]-10,10-dimethyl-7-azadispiro[3.0.4.1]decane-8-carboxamide] is 2.9-fold higher in IC50: 3.5 nM for the first, 10 nM for the second. The first is the more potent here.

`[2H]C([2H])([2H])C([2H])([2H])N1CCC[C@H]1C(=O)NC(C(=O)N[C@H](C(=O)N1C[C@]2(C[C@H]1C(=O)N[C@]1(C(=O)NS(=O)(=O)N3CCCC3)C[C@H]1C=C)C(C)(C)C21CCC1)C(C)(C)C)C1CCCCC1` (stereo partly drawn) [Compound 138, (5R,8S)-7-[(2S)-2-{[(2S)-2-cyclohexyl-2-({[(2S)-1-d5-ethylpyrrolidin-2-yl]carbonyl}amino)acetyl]amino}-3,3-dimethylbutanoyl]-10,10-dimethyl-N-{(1R,2S)-1-[(pyrrolidin-1-ylsulfonyl)carbamoyl]-2-vinylcyclopropyl}-7-azadispiro[3.0.4.1]decane-8-carboxamide-d5] and `[2H]C([2H])([2H])C([2H])([2H])N1CCCC[C@H]1C(=O)NC(C(=O)N[C@H](C(=O)N1C[C@]2(C[C@H]1C(=O)N[C@]1(C(=O)NS(=O)(=O)N3CCCC3)C[C@H]1C=C)C(C)(C)C21CCC1)C(C)(C)C)C1CCCCC1` (stereo partly drawn) [Compound 139, (5R,8S)-7-[(2S)-2-{[(2S)-2-cyclohexyl-2-({[(2S)-1-d5-ethylpiperidin-2-yl]carbonyl}amino)acetyl]amino}-3,3-dimethylbutanoyl]-10,10-dimethyl-N-{(1R,2S)-1-[(pyrrolidin-1-ylsulfonyl)carbamoyl]-2-vinylcyclopropyl}-7-azadispiro[3.0.4.1]decane-8-carboxamide-d5] are within 1.5-fold of each other in IC50: 3 nM for the first, 3.5 nM for the second.

Going from `CC[C@@H]1C[C@]1(NC(=O)[C@@H]1C[C@@]2(CN1C(=O)[C@@H](NC(=O)[C@@H](NC(=O)[C@@H]1CCCCN1C(C)C)C1CCCCC1)C(C)(C)C)C(C)(C)C21CCC1)C(=O)NS(=O)(=O)N(C)C(C)C` [Compound 141, (5R,8S)-7-[(2S)-2-{[(2S)-2-cyclohexyl-2-({[(2S)-1-isopropylpiperidin-2-yl]carbonyl}amino)acetyl]amino}-3,3-dimethylbutanoyl]-N-[(1R,2R)-2-ethyl-1-({[isopropyl(methyl)amino]sulfonyl}carbamoyl)cyclopropyl]-10,10-dimethyl-7-azadispiro[3.0.4.1]decane-8-carboxamide] to `[2H]C([2H])([2H])N(C([2H])([2H])[2H])S(=O)(=O)NC(=O)[C@@]1(NC(=O)[C@@H]2C[C@@]3(CN2C(=O)[C@@H](NC(=O)[C@@H](NC(=O)[C@@H]2CCCCN2C(C)C)C2CCCCC2)C(C)(C)C)C(C)(C)C32CCC2)C[C@H]1C=C` [Compound 148, (5R,8S)-7-[(2S)-2-{[(2S)-2-cyclohexyl-2-({[(2S)-1-isopropylpiperidin-2-yl]carbonyl}amino)acetyl]amino}-3,3-dimethylbutanoyl]-N-[(1R,2S)-1-{[(d6-dimethylamino)sulfonyl]carbamoyl}-2-vinylcyclopropyl]-10,10-dimethyl-7-azadispiro[3.0.4.1]decane-8-carboxamide-d6], the IC50 falls from 8 nM to 0.8 nM (10-fold).

Compared with `C=C[C@@H]1C[C@]1(NC(=O)[C@@H]1C[C@@]2(CN1C(=O)[C@@H](NC(=O)[C@@H](NC(=O)[C@@H]1CCCCN1C(C)C)C1CCCCC1)C(C)(C)C)C(C)(C)C21CCC1)C(=O)NS(=O)(=O)N1CCC(F)(F)C1` [Compound 143, (5R,8S)-7-[(2S)-2-{[(2S)-2-cyclohexyl-2-({[(2S)-1-isopropylpiperidin-2-yl]carbonyl}amino)acetyl]amino}-3,3-dimethylbutanoyl]-N-[(1R,2S)-1-{[(3,3-difluoropyrrolidin-1-yl)sulfonyl]carbamoyl}-2-vinylcyclopropyl]-10,10-dimethyl-7-azadispiro[3.0.4.1]decane-8-carboxamide], `C=C[C@@H]1C[C@]1(NC(=O)[C@@H]1C[C@@]2(CN1C(=O)[C@@H](NC(=O)[C@@H](NC(=O)[C@@H]1SCCN1CC)C1CCCCC1)C(C)(C)C)C(C)(C)C21CCC1)C(=O)NS(=O)(=O)N1CCCC1` [Compound 144, (5R,8S)-7-[(2S)-2-{[(2S)-2-cyclohexyl-2-({[(2S)-3-ethyl-1,3-thiazolidin-2-yl]carbonyl}amino)acetyl]amino}-3,3-dimethylbutanoyl]-10,10-dimethyl-N-{(1R,2S)-1-[(pyrrolidin-1-ylsulfonyl)carbamoyl]-2-vinylcyclopropyl}-7-azadispiro[3.0.4.1]decane-8-carboxamide] is 3-fold higher in IC50: 3 nM for the first, 9 nM for the second. The first is the more potent here.

Compared with `C=C[C@@H]1C[C@]1(NC(=O)[C@@H]1C[C@@]2(CN1C(=O)[C@@H](NC(=O)[C@@H](NC(=O)[C@@H]1CCCN1CC)C1(C)CCCCC1)C1(C)CCOCC1)C(C)(C)C21CCC1)C(=O)NS(=O)(=O)N1CCCC1` [Compound 146, (5R,8S)-7-[(2S)-2-{[(2S)-2-({[(2S)-1-ethylpyrrolidin-2-yl]carbonyl}amino)-2-(1-methylcyclohexyl)acetyl]amino}-2-(4-methyltetrahydro-2H-pyran-4-yl)acetyl]-10,10-dimethyl-N-{(1R,2S)-1-[(pyrrolidin-1-ylsulfonyl)carbamoyl]-2-vinylcyclopropyl}-7-azadispiro[3.0.4.1]decane-8-carboxamide], `C=C[C@@H]1C[C@]1(NC(=O)[C@@H]1C[C@@]2(CN1C(=O)[C@@H](NC(=O)[C@@H](NC(=O)[C@@H]1CCCCN1C(C)C)C1(C)CCCCC1)C1(C)CCOCC1)C(C)(C)C21CCC1)C(=O)NS(=O)(=O)N1CCCC1` [Compound 147, (5R,8S)-7-[(2S)-2-{[(2S)-2-({[(2S)-1-isopropylpiperidin-2-yl]carbonyl}amino)-2-(1-methylcyclohexyl)acetyl]amino}-2-(4-methyltetrahydro-2H-pyran-4-yl)acetyl]-10,10-dimethyl-N-{(1R,2S)-1-[(pyrrolidin-1-ylsulfonyl)carbamoyl]-2-vinylcyclopropyl}-7-azadispiro[3.0.4.1]decane-8-carboxamide] is 2-fold lower in IC50: 3 nM for the first, 1.5 nM for the second.
